The results in this text go back to patent US20060035938A1, “2-Pyridone derivatives as inhibitors of neutrophile elastase” (priority 2002, published 2006).

Structures are written as SMILES.

In the test the target is T1, Human Neutrophil Elastase (HNE) (Homo sapiens, UniProt P08246).
T1 construct: Human Neutrophil Elastase (HNE) purified from serum; purchased Calbiochem 324681; host or cells: purified from human serum (so in the source); not recombinant
T1 sequence (P08246 30-267): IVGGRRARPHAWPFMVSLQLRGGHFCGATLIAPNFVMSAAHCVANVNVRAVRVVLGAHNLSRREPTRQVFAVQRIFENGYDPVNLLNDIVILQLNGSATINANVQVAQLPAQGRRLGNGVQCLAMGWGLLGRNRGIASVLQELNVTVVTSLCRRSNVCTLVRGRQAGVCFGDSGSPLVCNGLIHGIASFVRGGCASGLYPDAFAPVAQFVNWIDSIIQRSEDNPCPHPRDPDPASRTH
Briefly: Human Neutrophil Elastase Quenched-FRET Assay. Format: biochemical. The conditions noted are these: read-out: Inhibition of Human Neutrophil Elastase IC50. As to the method:
Human Neutrophil Elastase Quenched-FRET Assay
The assay uses Human Neutrophil Elastase (HNE) purified from serum (Calbiochem art. 324681; Ref. Baugh, R J. et al., 1976, Biochemistry. 15, 836-841). HNB was stored in 50 mM NaOAc, 200 mM NaCl, pH 5.5 with added 30% glycerol at −20° C. The protease substrate used was Elastase Substrate V Fluorogenic, MeOSuc-AAPV-AMC (Calbiochem art. 324740; Ref. Castillo, M. J. et al., 1979, Anal. Biochem. 99, 53-64). The substrate was stored in DMSO at −20° C. The assay additions were as follows: Test compounds and controls were added to black 96-well flat-bottom plates (Greiner 655076), 1 μL in 100% DMSO, followed by 30 μL HNE in assay buffer with 0.01% TritonX-100. The assay buffer constitution was: 100 mM Tris (pH 7.5) and 500 mM NaCl. The enzyme and the compounds were incubated at room temperature for 15 minutes. Then 30 μl substrate in assay buffer was added The assay was stopped after 30 minutes incubation at room temperature by adding 60 μl stop solution (140 mM acetic acid, 200 mM sodium monochloroacetate, 60 mM sodium acetate, pH 4.3). Fluorescence was measured on a Wallac 1420 Victor 2 instrument at settings: Exitation 380 nm, Emission 460 nm. IC50 values were determined using xlfit curve fitting using model 205.
On to `COc1ccc(CNC(=O)c2ccc(C)n(-c3cccc(Br)c3)c2=O)cc1` [1-(3-Bromophenyl)-N-(4-methoxybenzyl)-6-methyl-2-oxo-1,2-dihydropyridine-3-carboxamide], for which the half-inhibitory concentration (IC50) was determined as 353 nM.

For the compound `Cc1cc(CNC(=O)c2ccc(C)n(-c3cccc(C(F)(F)F)c3)c2=O)no1` [6-Methyl-N-[(5-methylisoxazol-3-yl)methyl]-2-oxo-1-[3-(trifluoromethyl)phenyl]-1,2-dihydropyridine-3-carboxamide], the IC50 was determined as 318 nM.

With `O=C(NCc1ccc2c(c1)CCO2)c1c[nH]c(=O)n(-c2cccc(C(F)(F)F)c2)c1=O` [N-(2,3-Dihydro-1-benzofuran-5-ylmethyl)-2,4-dioxo-3-[3-(trifluoromethyl)phenyl]-1,2,3,4-tetrahydropyrimidine-5-carboxamide], the IC50 is 2030 nM.

`COc1cccc(CNC(=O)c2ccc(C)n(-c3cccc(C(F)(F)F)c3)c2=O)c1OC` [N-(2,3-Dimethoxybenzyl)-6-methyl-2-oxo-1-[3-(trifluoromethyl)phenyl]-1,2-dihydropyridine-3-carboxamide]: the IC50 worked out at 701 nM.

Broadly, the IC50 is the midpoint of a concentration-inhibition curve.
